Measured values published in paper PMC7999182, “Interaction of Remdesivir with Clinically Relevant Hepatic Drug Uptake Transporters” (Pharmaceutics, 2021).
Substitutions are numbered along the chain they refer to.

Assays:
[1] = biological target: T1, OATP1B1*15 (Homo sapiens, UniProt Q9Y6L6, N130D/V174A); assay: Remdesivir uptake into HEK cells stably expressing OATP1B1*15 vs vector control; assay type: in vitro ADME; conditions: 10 min
T1 construct: expressed in transfected cells
T1 sequence (Q9Y6L6 1-691 N130D/V174A): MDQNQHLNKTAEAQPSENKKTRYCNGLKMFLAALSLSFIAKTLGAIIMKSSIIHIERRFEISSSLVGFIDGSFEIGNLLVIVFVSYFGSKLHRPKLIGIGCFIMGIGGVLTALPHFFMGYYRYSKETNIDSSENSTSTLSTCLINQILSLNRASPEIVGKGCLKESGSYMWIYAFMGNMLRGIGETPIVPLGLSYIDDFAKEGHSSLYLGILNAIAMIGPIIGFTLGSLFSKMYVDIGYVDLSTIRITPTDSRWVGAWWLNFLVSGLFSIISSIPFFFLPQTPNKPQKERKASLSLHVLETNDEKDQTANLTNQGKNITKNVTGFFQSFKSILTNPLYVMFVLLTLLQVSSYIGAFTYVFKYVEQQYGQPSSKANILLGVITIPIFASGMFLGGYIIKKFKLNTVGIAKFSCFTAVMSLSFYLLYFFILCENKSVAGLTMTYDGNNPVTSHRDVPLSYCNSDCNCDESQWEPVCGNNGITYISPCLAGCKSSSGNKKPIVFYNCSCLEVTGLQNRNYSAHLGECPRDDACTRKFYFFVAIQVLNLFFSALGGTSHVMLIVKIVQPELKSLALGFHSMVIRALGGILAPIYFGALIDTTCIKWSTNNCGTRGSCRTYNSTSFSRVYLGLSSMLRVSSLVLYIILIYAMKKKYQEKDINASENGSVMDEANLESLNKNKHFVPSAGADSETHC
Text: (§1) Generation, cultivation and characterization of human embryonic kidney (HEK) cells stably expressing OATP1B1 refseq (=OATP1B1*1a), OATP1B1*1b, OATP1B1*5 and OATP1B1*15 [18], OATP1B3 [19], OATP2B1 [13] and OCT1 [20] have been described previously. OATP1B1 cells were cultivated in minimal essential medium (Life Technologies, Paisley, UK) and OATP1B3, OATP2B1 and OCT1 cells were cultivated in Dulbecco’s modified Eagle medium (Sigma, Darmstadt, Germany). Cultivation media were supplemented with 10% fetal calf serum, 100 U/mL penicillin and 100 µg/mL streptomycin. Cells were grown at 37 °C and 5% CO2. Functionality of the cells was confirmed by measuring uptake of prototypic substrates (see Section 2.3 and supplementary material).
Uptake assays were conducted at 37 °C according to previously described methods. For this, cells were seeded in 24-well plates (320,000 cells/well) and cultured for 2 days. Cells were then incubated for a further 24 h in culture medium with 5 mM butyrate (OATP1B3, OATP2B1, OCT1) or 10 mM butyrate (OATP1B1) to increase protein levels of recombinant transporters. Before the uptake experiments, cells were washed with the respective pre-warmed (37 °C) uptake buffer. The compositions of the uptake buffers were as follows: for OATP1B1, OATP1B3, OATP2B1: 142 mM NaCl, 12.5 mM hydroxyethylpiperazine ethanesulfonic acid, 5 mM KCl, 1 mM KH2PO4, 1.5 mM CaCl2, 1.2 mM MgSO4, 5 mM glucose, pH 7.3; for OCT1: 145 mM NaCl, 5 mM hydroxyethylpiperazine ethanesulfonic acid, 3 mM KCl, 1 mM CaCl2, 0.5 mM MgCl2, 5 mM glucose, pH 7.4. Uptake was initiated by replacing this solution with uptake buffer containing different concentrations of remdesivir as indicated. […]
(§2) Remdesivir was determined by UHPLC-MS-MS analysis on an Agilent 1290 infinity UHPLC system coupled to an Agilent 6495B triple quadrupole mass spectrometer (Agilent, Waldbronn, Germany) similar to a recently published method. […]

[2] = biological target: T2, OATP1B1*1b (Homo sapiens, UniProt Q9Y6L6, N130D); assay: Remdesivir uptake into HEK cells stably expressing OATP1B1*1b vs vector control; assay type: in vitro ADME; conditions: 10 min
T2 construct: expressed in transfected cells
T2 sequence (Q9Y6L6 1-691 N130D): T1 sequence (Q9Y6L6 1-691 N130D/V174A) with A174V
Text: as §1
Uptake assays were conducted at 37 °C according to previously described methods. For this, cells were seeded in 24-well plates (320,000 cells/well) and cultured for 2 days. Cells were then incubated for a further 24 h in culture medium with 5 mM butyrate (OATP1B3, OATP2B1, OCT1) or 10 mM butyrate (OATP1B1) to increase protein levels of recombinant transporters. […]
as §2

CCC(CC)COC(=O)[C@H](C)N[P@](=O)(OC[C@H]1O[C@@](C#N)(c2ccc3c(N)ncnn23)[C@H](O)[C@@H]1O)Oc1ccccc1 [Remdesivir]
Uptake vs vector-transfected control cells ([1]; 0.5 µM remdesivir): significantly lower uptake | Accumulation vs vector-transfected control cells ([1]; 5 µM remdesivir): moderately higher | Accumulation vs vector-transfected control cells ([1]; 10 and 50 µM remdesivir): moderately higher | Accumulation vs vector-transfected control cells ([2]; 5 µM remdesivir): moderately higher | Accumulation vs vector-transfected control cells ([2]; 50 µM remdesivir): moderately higher
